Assay results published in patent US20250281424A1 (New York Blood Center, Inc, priority 2020, published 2025).

Molecular target: T1, human PF4 (Homo sapiens, UniProt P02776)
T1 construct: PF4 is a 70 amino acid, lysine-rich 7.8 kDa platelet-specific protein; made in house; host or cells: Escherichia coli BL21DE3 pLysS (pT7-7) and/or Drosophila S2 cells
T1 sequence (P02776 32-101): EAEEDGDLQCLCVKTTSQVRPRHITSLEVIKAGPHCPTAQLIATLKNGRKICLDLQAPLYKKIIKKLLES
Test: Inhibition of PF4 tetramer formation (BS3 cross-linking, SDS-PAGE)
Type: biochemical
Settings: for inhibition at 5 µM: 5 μM inhibitor; for inhibition at 5 µM / inhibition at 10 µM: read-out: % inhibition of PF4 tetramer formation at single concentration of inhibitor; for inhibition at 10 µM: 10 μM inhibitor (column A); for IC50: read-out: IC50 of PF4 tetramer formation inhibition
In short: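 Recombinant human wild-type PF4 (E. coli-expressed, heparin-purified), 10 μg/ml in PBS, incubated with compound 15 min at 37° C or 60 min at room temperature, then cross-linked with 0.2 mM BS3 for 30 min at room temperature. Reducing 12% SDS-PAGE; bands quantified as % tetramer, trimer, dimer, monomer versus compound-free control.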

Row | inhibition at 5 µM | inhibition at 10 µM | SMILES | IC50
1 | 76% | 91% | COC(=O)N1CCC[C@H]1C(=O)C1C(=O)c2ccc(C(=O)c3ccc4c(c3)C(=O)C(C(=O)[C@@H]3CCCN3C(=O)OC)C4=O)cc2C1=O (stereo partly drawn) [Example 114, methyl (2S)-2-(5-{2-[(2S)-1-(methoxycarbonyl)pyrrolidine-2-carbonyl]-1,3-dioxo-2,3-dihydro-1H-indene-5-carbonyl}-1,3-dioxo-2,3-dihydro-1H-indene-2-carbonyl)pyrrolidine-1-carboxylate] | 2.5 µM
2 | – | – | CC(C)(C)OC(=O)N1CC[C@H]1C(=O)C1C(=O)c2ccc(C(=O)c3ccc4c(c3)C(=O)C(C(=O)[C@@H]3CCN3C(=O)OC(C)(C)C)C4=O)cc2C1=O (stereo partly drawn) [Example 115, tert-butyl (2S)-2-(5-{2-[(2S)-1-[(tert-butoxy)carbonyl]azetidine-2-carbonyl]-1,3-dioxo-2,3-dihydro-1H-indene-5-carbonyl}-1,3-dioxo-2,3-dihydro-1H-indene-2-carbonyl)azetidine-1-carboxylate] | 3.3 µM
3 | 13% | 21% | O=C(c1ccc2c(c1)C(=O)C(C(=O)[C@@H]1CCN1)C2=O)c1ccc2c(c1)C(=O)C(C(=O)[C@@H]1CCN1)C2=O (stereo partly drawn) [Example 116, 2-[(2S)-azetidine-2-carbonyl]-5-{2-[(2S)-azetidine-2-carbonyl]-1,3-dioxo-2,3-dihydro-1H-indene-5-carbonyl}-2,3-dihydro-1H-indene-1,3-dione] | –
4 | 75% | 94% | N[C@H](C(=O)C1C(=O)c2ccc(C(=O)c3ccc4c(c3)C(=O)C(C(=O)[C@@H](N)C3CC3)C4=O)cc2C1=O)C1CC1 (stereo partly drawn) [Example 118, 2-[(2S)-2-amino-2-cyclopropylacetyl]-5-{2-[(2S)-2-amino-2-cyclopropylacetyl]-1,3-dioxo-2,3-dihydro-1H-indene-5-carbonyl}-2,3-dihydro-1H-indene-1,3-dione] | 3.4 µM
5 | 82% | 80% | CC(C)(C)OC(=O)N1C[C@@H]2[C@H](C1)[C@H]2C(=O)C1C(=O)c2ccc(C(=O)c3ccc4c(c3)C(=O)C(C(=O)[C@H]3[C@@H]5CN(C(=O)OC(C)(C)C)C[C@@H]53)C4=O)cc2C1=O (stereo partly shown) [Example 121] | 3.5 µM
6 | – | – | CC(C)(C)OC(=O)N1CC=C[C@H]1C(=O)C1C(=O)c2ccc(C(=O)c3ccc4c(c3)C(=O)C(C(=O)[C@@H]3C=CCN3C(=O)OC(C)(C)C)C4=O)cc2C1=O (stereo partly drawn) [Example 122, tert-butyl (2S)-2-(5-{2-[(2S)-1-[(tert-butoxy)carbonyl]-2,5-dihydro-1H-pyrrole-2-carbonyl]-1,3-dioxo-2,3-dihydro-1H-indene-5-carbonyl}-1,3-dioxo-2,3-dihydro-1H-indene-2-carbonyl)-2,5-dihydro-1H-pyrrole-1-carboxylate] | ~3 µM
7 | – | – | CC(C)(C)OC(=O)N1CCSC1C(=O)C1C(=O)c2ccc(C(=O)c3ccc4c(c3)C(=O)C(C(=O)C3SCCN3C(=O)OC(C)(C)C)C4=O)cc2C1=O (stereo not shown) [Example 124, tert-butyl 2-[5-(2-{3-[(tert-butoxy)carbonyl]-1,3-thiazolidine-2-carbonyl}-1,3-dioxo-2,3-dihydro-1H-indene-5-carbonyl)-1,3-dioxo-2,3-dihydro-1H-indene-2-carbonyl]-1,3-thiazolidine-3-carboxylate] | 6.3 µM
8 | 87% | 93% | O=C(c1ccc2c(c1)C(=O)C(C(=O)[C@@H]1CCCN1C(=O)OCc1ccccc1)C2=O)c1ccc2c(c1)C(=O)C(C(=O)[C@@H]1CCCN1C(=O)OCc1ccccc1)C2=O (stereo partly drawn) [Example 125, benzyl (2S)-2-(5-{2-[(2S)-1-[(benzyloxy)carbonyl]pyrrolidine-2-carbonyl]-1,3-dioxo-2,3-dihydro-1H-indene-5-carbonyl}-1,3-dioxo-2,3-dihydro-1H-indene-2-carbonyl)pyrrolidine-1-carboxylate] | 1.2 µM
9 | 88% | 89% | O=C(c1ccc2c(c1)C(=O)C(C(=O)Cn1cccn1)C2=O)c1ccc2c(c1)C(=O)C(C(=O)Cn1cccn1)C2=O (stereo not shown) [Example 126, 5-{1,3-dioxo-2-[2-(1H-pyrazol-1-yl)acetyl]-2,3-dihydro-1H-indene-5-carbonyl}-2-[2-(1H-pyrazol-1-yl)acetyl]-2,3-dihydro-1H-indene-1,3-dione] | 3.1 µM
10 | – | – | CC(C)(C)OC(=O)N1CCCC[C@H]1C(=O)C1C(=O)c2ccc(C(=O)c3ccc4c(c3)C(=O)C(C(=O)[C@@H]3CCCCN3C(=O)OC(C)(C)C)C4=O)cc2C1=O (stereo partly drawn) [Example 127, tert-butyl (2S)-2-(5-{2-[(2S)-1-[(tert-butoxy)carbonyl]piperidine-2-carbonyl]-1,3-dioxo-2,3-dihydro-1H-indene-5-carbonyl}-1,3-dioxo-2,3-dihydro-1H-indene-2-carbonyl)piperidine-1-carboxylate] | 1 µM
11 | 51% | 87% | CO[C@H](C)[C@H](N)C(=O)C1C(=O)c2ccc(C(=O)c3ccc4c(c3)C(=O)C(C(=O)[C@@H](N)[C@@H](C)OC)C4=O)cc2C1=O (stereo partly drawn) [Example 128, 2-[(2S,3R)-2-amino-3-methoxybutanoyl]-5-{2-[(2S,3R)-2-amino-3-methoxybutanoyl]-1,3-dioxo-2,3-dihydro-1H-indene-5-carbonyl}-2,3-dihydro-1H-indene-1,3-dione] | 7.8 µM
12 | – | – | CC(C)(C)OC(=O)N1CSC[C@H]1C(=O)C1C(=O)c2ccc(C(=O)c3ccc4c(c3)C(=O)C(C(=O)[C@@H]3CSCN3C(=O)OC(C)(C)C)C4=O)cc2C1=O (stereo partly drawn) [Example 129, tert-butyl (4R)-4-(5-{2-[(4R)-3-[(tert-butoxy)carbonyl]-1,3-thiazolidine-4-carbonyl]-1,3-dioxo-2,3-dihydro-1H-indene-5-carbonyl}-1,3-dioxo-2,3-dihydro-1H-indene-2-carbonyl)-1,3-thiazolidine-3-carboxylate] | ~2 µM
13 | – | – | O=C(O)CCC(=O)C1C(=O)c2ccc(C(=O)c3ccc4c(c3)C(=O)C(C(=O)CCC(=O)O)C4=O)cc2C1=O (stereo not shown) [Example 130, 4-{5-[2-(3-carboxypropanoyl)-1,3-dioxo-2,3-dihydro-1H-indene-5-carbonyl]-1,3-dioxo-2,3-dihydro-1H-inden-2-yl}-4-oxobutanoic acid] | 1.4 µM

Row | SMILES | inhibition at 5 µM | inhibition at 10 µM | IC50
14 | CO[C@@H](C(=O)C1C(=O)c2ccc(C(=O)c3ccc4c(c3)C(=O)C(C(=O)[C@H](OC)c3ccccc3)C4=O)cc2C1=O)c1ccccc1 (stereo partly drawn) [Example 119, 2-[(2R)-2-methoxy-2-phenylacetyl]-5-{2-[(2R)-2-methoxy-2-phenylacetyl]-1,3-dioxo-2,3-dihydro-1H-indene-5-carbonyl}-2,3-dihydro-1H-indene-1,3-dione] | 83% | 90% | 4 µM
15 | C[C@@H]1CC[C@@H](C(=O)C2C(=O)c3ccc(C(=O)c4ccc5c(c4)C(=O)C(C(=O)[C@@H]4CC[C@@H](C)N4C(=O)OC(C)(C)C)C5=O)cc3C2=O)N1C(=O)OC(C)(C)C (stereo partly drawn) [Example 120B, tert-butyl (2S,5R)-2-(5-{2-[(2S,5R)-1-[(tert-butoxy)carbonyl]-5-methylpyrrolidine-2-carbonyl]-1,3-dioxo-2,3-dihydro-1H-indene-5-carbonyl}-1,3-dioxo-2,3-dihydro-1H-indene-2-carbonyl)-5-methylpyrrolidine-1-carboxylate] | 75% | 86% | –
16 | CC(C)(C)OC(=O)N1CC[C@@H](C(=O)C2C(=O)c3ccc(C(=O)c4ccc5c(c4)C(=O)C(C(=O)[C@@H]4CCN(C(=O)OC(C)(C)C)C4)C5=O)cc3C2=O)C1 (stereo partly drawn) [Example 123, tert-butyl (3R)-3-(5-{2-[(3R)-1-[(tert-butoxy)carbonyl]pyrrolidine-3-carbonyl]-1,3-dioxo-2,3-dihydro-1H-indene-5-carbonyl}-1,3-dioxo-2,3-dihydro-1H-indene-2-carbonyl)pyrrolidine-1-carboxylate] | 88% | 89% | 1.6 µM
17 | CC(C)(C)OC(=O)N1CC2(CC(C(=O)C3C(=O)c4ccc(C(=O)c5ccc6c(c5)C(=O)C(C(=O)C5CC7(C5)CN(C(=O)OC(C)(C)C)C7)C6=O)cc4C3=O)C2)C1 (stereo not shown) [Example 131, tert-butyl 6-[5-(2-{2-[(tert-butoxy)carbonyl]-2-azaspiro[3.3]heptane-6-carbonyl}-1,3-dioxo-2,3-dihydro-1H-indene-5-carbonyl)-1,3-dioxo-2,3-dihydro-1H-indene-2-carbonyl]-2-azaspiro[3.3]heptane-2-carboxylate] | 83% | 88% | 4.1 µM
18 | C[C@H]1C[C@@H](C(=O)C2C(=O)c3ccc(C(=O)c4ccc5c(c4)C(=O)C(C(=O)[C@@H]4C[C@H](C)CN4C(=O)OC(C)(C)C)C5=O)cc3C2=O)N(C(=O)OC(C)(C)C)C1 (stereo partly drawn) [Example 132, tert-butyl (2S,4S)-2-(5-{2-[(2S,4S)-1-[(tert-butoxy)carbonyl]-4-methylpyrrolidine-2-carbonyl]-1,3-dioxo-2,3-dihydro-1H-indene-5-carbonyl}-1,3-dioxo-2,3-dihydro-1H-indene-2-carbonyl)-4-methylpyrrolidine-1-carboxylate] | 79% | 88% | 3.5 µM
19 | C=C1C[C@@H](C(=O)C2C(=O)c3ccc(C(=O)c4ccc5c(c4)C(=O)C(C(=O)[C@@H]4CC(=C)CN4C(=O)OC(C)(C)C)C5=O)cc3C2=O)N(C(=O)OC(C)(C)C)C1 (stereo partly drawn) [Example 133, tert-butyl (2S)-2-(5-{2-[(2S)-1-[(tert-butoxy)carbonyl]-4-methylidenepyrrolidine-2-carbonyl]-1,3-dioxo-2,3-dihydro-1H-indene-5-carbonyl}-1,3-dioxo-2,3-dihydro-1H-indene-2-carbonyl)-4-methylidenepyrrolidine-1-carboxylate] | 66% | 88% | ~6 µM
